The test system of data set [1] is ApoE^−/− mice. Nature of the data set: Bleeding time after long-term oral administration (Figure S1). It is filed as in vivo, mouse. The note with it: n = 8. An excerpt: The following supporting information can be downloaded at: https://www.mdpi.com/article/10.3390/nu16213752/s1, Figure S1: Bleeding time after oral administration of peptide OG-5 in ApoE^−/− mice (n = 8).

Data set [2] is described as follows: Body weight and organ index of ApoE−/− mice after oral administration. It counts as in vivo, mouse. The note with it: n = 8. On the procedure: The animal study was performed in compliance with the requirements of the Guide for the Care and Use of Laboratory Animals (NIH publication No.86-23, revised 1996) and was approved by the Welfare Committee of Pony Testing International Group Co., Ltd., Beijing, China (PONY-2021-FL-12, approval date: 5 December 2021). The 7-week-old male ApoE^−/− mice and C57BL/6J mice were purchased from Beijing Vital River Laboratory Animal Technology Co., Ltd. (Beijing, China). The mice were acclimatized for a period of one week in a pathogen-free environment, maintained under a controlled 12-h light/dark cycle at a constant temperature of 21 °C. During this period, they had unrestricted access to a standard rodent chow diet and tap water. Following acclimatization, the mice were assigned to experimental groups randomly, with each group consisting of eight mice.
(§1) The establishment of the AS model in ApoE^−/− mice was divided into two stages. At I stage, 8-week-old male ApoE^−/− mice were fed a Western-type diet (42% fat; 21% anhydrous milk fat, 0.15% cholesterol) for 16 weeks to establish an early AS model. At II stage, a high-fat and high-cholesterol diet (containing 5% cholesterol, 0.5% sodium cholate, 20% fat) was replaced at the 17th week to accelerate the progress of AS till the 24th week. The C57BL6/J mice were utilized as the normal control group and maintained on a standard maintenance diet (20% protein; 5% fat; 50% carbohydrate; 5% cellulose; 10% vitamins and minerals). The mice were subsequently randomized into 4 groups, each consisting of 8 animals: (i) M Group (0.9% saline for ApoE^−/− mice), (ii) Sustainable OG-5 intervention group (50 mg/kg bw) during two stages, (iii) OG-5 treatment group (150 mg/kg bw), and (iv) aspirin group (25 mg/kg bw) at II stage. The OG-5 and aspirin were orally administered to mice every other day. Animals that were not subjected to any treatment and maintained on a normal diet served as the control group (N group). The body weight was monitored every week.
(§2) After 24-week treatment, the mice were fasted overnight and sacrificed. Blood was collected to stand at room temperature for 2 h, and the serum was separated by centrifugation for further analysis.

Data set [3] is described as follows: In vivo absorption experiment on rats. The note with it: rat. On the procedure:
The peptide absorption in vivo was conducted as previously described. The rats were orally administered with peptide OG-5 (1.0 g/kg bw). Blood samples were obtained via a minimal incision at the tail tip at 0, 0.5, 1, and 2 h after oral administration. The collected blood was transferred into 5 kDa ultrafiltration centrifugal tube, and the filtrate was collected for HPLC analysis. The elution program was conducted as follows: 0–5 min, 10–15% buffer B (acetonitrile); 5–20 min, 15–25% buffer B; 20–25 min, 25–100% buffer B.

The subject of data set [4] is Caco-2 cell monolayers. Put plainly: Transport across Caco-2 cell monolayers. It is filed as in vitro ADME, human. The note with it: Caco-2 monolayers 21 days, TEER > 800 Ω·cm^2, apical to basolateral, HBSS, pre-incubation 1 h 37 °C, incubation 2 h, HPLC. On the procedure: The Caco-2 cell culture and the establishment of the transepithelial transport model were according to the previous study. The Caco-2 cells (10–20 passages) were grown in DMEM supplemented with 10% FBS and 1% penicillin streptomycin at 37 °C.
For the establishment of the transepithelial transport model, Caco-2 cells were seeded onto permeable polyester inserts (12 mm diameter, with a growth surface area of 1.12 cm^2 and a pore size of 0.4 μm, sourced from Costar, Corning, NY, USA) placed in 12-well transwell plates at a density of 1 × 10^5 cells per insert. Over a period of 21 days, the cell culture medium was replaced cautiously every two days to facilitate the differentiation of Caco-2 cells into fully confluent monolayers. […] The Caco-2 cell monolayers were delicately rinsed twice with HBSS and subsequently pre-incubated at 37 °C for 1 h. […]
Transport percentage (%) is calculated by the following equation: (1) Transport percentage %=transported amount of peptide in basolateral side/intial amount of peptide in apical side×100
The apparent permeability coefficient (Papp, cm/s) was calculated as follows:(2) Papp=dQ/dt×1/A×1/C0 where dQ/dt is the permeability rate (mmol/s); A is the area of the membrane (cm^2); C0 is the initial peptide concentration in the donor chamber (mM).
For orientation: Passage across Caco-2 layers is used to estimate intestinal permeability.

The nature of data set [5]: Peptide stability in plasma. Particulars: rat plasma (heparinized), 0.5 mM, 37 °C, 8 h incubation, 3 kDa ultrafiltration, HPLC-UV peak area. It is filed as in vitro ADME. As to the method: The assessment of peptide stability in plasma was conducted with modifications to a previously described method. Briefly, blood samples were collected in heparinized tubes and immediately centrifuged to separate the plasma supernatant. Subsequently, OG-5 was added to achieve a final concentration of 0.5 mM, and the mixture was incubated at 37 °C. At specified time points (0, 0.5, 1.0, 2.0, 4.0, and 8.0 h), the mixture was centrifuged using a 3 kDa ultrafiltration centrifugal tube to separate the filtrate. The filtrate was then analyzed using a Shimadzu LC-15 HPLC system, equipped with an SPD-15 ultraviolet detector (Kyoto, Japan). The HPLC analysis conditions included an injection volume of 10 μL, a flow rate of 1 mL/min, and a gradient elution program: 0–25 min, 0–25% acetonitrile (buffer B); 25–30 min, 25–35% buffer B; 30–35 min, 35–100% buffer B. The quantity of peptide OG-5 in the plasma was determined based on its peak area.

Data set [6] has as its system Caco-2 cell monolayers. Particulars: results reported for other peptides; cited from earlier work. An excerpt: According to the previous study, a Papp value higher than 1.0 × 10^−5 cm ...
The conditions of data set [7]: cited from earlier work. An excerpt: The application of peptides is usually limited for the short half-life and is commonly due to fast renal clearance as well as enzymatic degradation, including aminopeptidases, carboxypeptidases, dipeptidases and endopeptidases occurring during systemic circulation.
Data set [8] deals with ApoE^−/− mice. Put plainly: Serum lipid levels in ApoE−/− mice (advanced atherosclerosis model). Particulars: aspirin 25 mg/kg bw oral every other day at stage II, n = 8. It counts as in vivo, mouse.
Text: as §1, §2

Setting [9] is: long-term oral 150 mg/kg bw, bleeding time.
Where [10] appears, read: OG-5 50 mg/kg bw oral every other day, stages I and II.
Where [11] appears, read: OG-5 150 mg/kg bw oral every other day at stage II.
[12] abbreviates: aspirin 25 mg/kg bw oral every other day at stage II.

Read-outs that look alike come from different tables or passages of the source. Square brackets hold non-standard residues; d marks the D form. Peptide text beside a SMILES is read from it. Hyp = O=C(O)[C@@H]1C[C@@H](O)CN1

The term Tmax denotes the time at which the peak concentration occurs. As a reminder, the Papp is the rate of passage across a membrane or cell layer, normalised by area and donor concentration. The amount remaining is what is left of the initial amount, in per cent. Regarding `O=C(O)CC[C@H](NC(=O)CNC(=O)[C@@H]1C[C@@H](O)CN1)C(=O)N[C@@H](Cc1ccccc1)C(=O)NCC(=O)O` [OG-5, OGEFG] (H-[Hyp]GEFG-OH), in data set [1] (setting [9]), the “bleeding risk compared to aspirin” value was “lower bleeding risk”. Moreover, in data set [1] (setting [9]), the “bleeding risk compared with M model” value is listed as “a little bleeding risk”. Besides, the bleeding risk entry in data set [1] (low-dose sustainable intervention 50 mg/kg bw from stage I) is given as “without bleeding risks”. In addition, the “Initial Body weight” value in data set [2] (OG-5 50 mg/kg bw oral every other day, stages I and II (24 weeks), mean ± standard) is listed as 24.5 ± 1.0 g; in data set [2] (OG-5 150 mg/kg bw oral every other day at stage II (weeks 17-24)), 27.8 ± 2.5 g. Further, the “Final Body weight” value was 27.7 ± 2.2 g in data set [2] (OG-5 50 mg/kg bw oral every other day, stages I and II (24 weeks)); 28.9 ± 2.0 g in data set [2] (setting [11]). Besides, the Spleen index in data set [2] (setting [10]) came to 4.16 ± 0.99 mg/g bw; in data set [2] (setting [11]) it was 4.80 ± 2.13 mg/g bw. Moreover, the Thymus index in data set [2] (setting [10]) is recorded as 0.69 ± 0.15 mg/g bw; in data set [2] (setting [11]), 0.79 ± 0.13 mg/g bw. The Tmax in data set [3] (po, 1 g/kg) is 2 h. In addition, the Cmax in data set [3] (rats, oral 1.0 g/kg bw, tail blood at 0, 0.5, 1, 2 h, 5 kDa ultrafiltration, HPLC, read-out: peak plasma concentration) turned out to be 77.8 µM. In data set [4], this compound yielded a Papp of 18 ×10⁻⁶ cm/s. Also, in data set [4] (spread printed ± 0.57), the Transport percentage is recorded as 14.40%. Further, the “peptide remaining intact in plasma” value in data set [5] is listed as above 70%. The fraction remaining at 8 h in data set [5] (read-out: peptide remaining intact in plasma) was 78.2%.
As to TNGIIR, the Papp in data set [6] is 4.9 ×10⁻⁶ cm/s.
Consider “RVPSL [literature antihypertensive peptide, ovotransferrin 328–332, compared for Caco-2 Papp]”, for which, in data set [6], the Papp was 7 ×10⁻⁶ cm/s.
As to PGEOG, the half-life in plasma in data set [7] is recorded as 4.3 h.
For the compound `CC(=O)Oc1ccccc1C(=O)O` [Aspirin, reference compound], in data set [2] (setting [12]), the “Final Body weight” value was 28.8 ± 1.7 g, the “Initial Body weight” value came to 27.7 ± 2.8 g, the Spleen index came out at 4.99 ± 2.64 mg/g bw and the Thymus index is reported as 0.83 ± 0.12 mg/g bw. In data set [8], this compound returned an HDL-C of 0.64 ± 0.37 mM, an LDL-C of 9.55 ± 1.89 mM, a TC of 41.09 ± 6.05 mM and a TG of 3.43 ± 0.96 mM.

Source of the values: publication PMC11547735, “Effect of Oral Administration of Collagen Peptide OG-5 on Advanced Atherosclerosis Development in ApoE^−/− Mice” (Nutrients, 2024).
